# Laboratory results taken from paper PMC11121837, “Impact of Nitric Oxide-Release Kinetics on Antifungal Activity” (Journal of Fungi, 2024).
# Values joined by “and” are separate entries in the source; they are usually repeats but may differ in a detail not shown here. Identical values can stand only once. Like-named read-outs stand apart in the source and are kept apart here.
# Experiments:
# [1] = tested on: Candida albicans; assay: Susceptibility assay (MIC, broth microdilution, CLSI M27); format: cell-based; details: for MIC: 24 h; for NO dose at MIC: calculated NO dose at MIC
# [2] = tested on: Candida auris; assay: as above; format: cell-based; details: for MIC / NO dose at MIC: Candidozyma auris; for MIC: 24 h; for resistance of strain to antifungal (breakpoint): CLSI/EUCAST breakpoints; for NO dose at MIC: calculated NO dose at MIC
# [3] = tested on: Cryptococcus neoformans; assay: as above; format: cell-based; details: for MIC / NO dose at MIC: Cryptococcus neoformans; for MIC: 72 h; for NO dose at MIC: calculated NO dose at MIC
# [4] = tested on: Aspergillus fumigatus spores; assay: Susceptibility assay for sporulating fungi (MIC, EUCAST E.Def.9.4); format: cell-based
# [5] = tested on: C. auris (MYA-5001); format: cell-based, Candida auris
# [6] = tested on: C. neoformans (ATCC208821); format: cell-based, Cryptococcus neoformans
# [7] = Characterization of NO release (chemiluminescence nitric oxide analyzer); format: physicochemical
# [8] = tested on: C. albicans (ATCC MYA-2876); assay: Checkerboard assay of NO donors with antifungals; format: cell-based, Candida albicans
# [9] = tested on: C. auris (ATCC MYA-5001); assay: Checkerboard assay of NO donors with antifungals; format: cell-based, Candida auris
# [10] = tested on: C. neoformans (ATCC 208821); assay: Checkerboard assay of NO donors with antifungals; format: cell-based, Cryptococcus neoformans
# [11] = tested on: MatTek EpiAirway tissue (AIR-100); assay: cells; format: cell-based; details: Homo sapiens, 24 h, read-out: IC50 (concentration needed to inhibit tissue viability by 50%)
# [12] = Cryptococcus neoformans ATCC 208821
# [13] = Cryptococcus neoformans ATCC MYA-4566
# [14] = Cryptococcus neoformans ATCC MYA-4567
# [15] = ATCC208821, 72 h, Cryptococcus neoformans ATCC 208821
# [16] = ATCC1022, Aspergillus fumigatus ATCC 1022 spores
# [17] = phosphate-buffered saline 10 mM, pH 7.4, 37 °C
# [18] = ATCC14053, Candida albicans ATCC 14053
# [19] = ATCC18804, Candida albicans ATCC 18804
# [20] = NO donor combined with 5-fluorocytosine
# [21] = NO donor combined with amphotericin B
# [22] = NO donor combined with butenafine
# [23] = NO donor combined with caspofungin
# [24] = NO donor combined with fluconazole
# [25] = NO donor combined with miconazole
smiles,measurement,setting,value
"NCCCNCCCCNCCCN [SPER, spermine, reference compound]",MIC of base scaffold,[1]; Candida albicans ATCC 14053,20000 µg/mL
same,MIC of base scaffold,[1]; Candida albicans ATCC 18804,> 20000 µg/mL
same,MIC of base scaffold,[1]; Candida albicans ATCC MYA-2876,> 20000 µg/mL
same,MIC of base scaffold,[2]; Candida auris ATCC MYA-5000,> 20000 µg/mL
same,MIC of base scaffold,[2]; Candida auris ATCC MYA-5001,> 20000 µg/mL
same,MIC of base scaffold,[2]; Candida auris ATCC MYA-5003,> 20000 µg/mL
same,MIC of base scaffold,[3]; [12],5000 µg/mL
same,MIC of base scaffold,[3]; [13],2500 µg/mL
same,MIC of base scaffold,[3]; [14],2500 µg/mL
"Nc1nc(=O)[nH]cc1F [5-fluorocytosine, reference compound]",MIC,[1]; Candida albicans ATCC MYA-2876,0.125 µg/mL
same,MIC,[2]; Candida auris ATCC MYA-5001,2 µg/mL
same,MIC,[3]; [15],4 µg/mL
same,MIC,[4]; [16],> 62.5 µg/mL
same,increase of MIC and MFC values after serial passaging,"[5]; C. auris, daily exposure to 1/10th of MIC, by passage 5",over 256 fold
same,increase of MIC and MFC values after serial passaging,"[6]; C. neoformans, daily exposure to 1/10th of MIC, by passage 5",over 256 fold
"NCCNCCN [DETA, Diethylenetriamine, reference compound]",MIC of base scaffold,[1]; Candida albicans ATCC 14053,> 20000 µg/mL
same,MIC of base scaffold,[1]; Candida albicans ATCC 18804,> 20000 µg/mL
same,MIC of base scaffold,[1]; Candida albicans ATCC MYA-2876,> 20000 µg/mL
same,MIC of base scaffold,[2]; Candida auris ATCC MYA-5000,> 20000 µg/mL
same,MIC of base scaffold,[2]; Candida auris ATCC MYA-5001,> 20000 µg/mL
same,MIC of base scaffold,[2]; Candida auris ATCC MYA-5003,> 20000 µg/mL
same,MIC of base scaffold,[3]; [12],> 20000 µg/mL
same,MIC of base scaffold,[3]; [13],> 20000 µg/mL
same,MIC of base scaffold,[3]; [14],10000 µg/mL
"Clc1ccc(COC(Cn2ccnc2)c2ccc(Cl)cc2Cl)c(Cl)c1 (stereo not drawn) [miconazole, reference compound]",MIC,[1]; Candida albicans ATCC MYA-2876,60 µg/mL
same,MIC,[2]; Candida auris ATCC MYA-5001,4 µg/mL
same,MIC,[3]; [15],0.5 µg/mL
same,MIC,[4]; [16],> 500 µg/mL
"CN(Cc1ccc(C(C)(C)C)cc1)Cc1cccc2ccccc12 [butenafine, reference compound]",MIC,[1]; Candida albicans ATCC MYA-2876,> 4000 µg/mL
same,MIC,[2]; Candida auris ATCC MYA-5001,> 4000 µg/mL
same,MIC,[3]; [15],0.3 µg/mL
same,MIC,[4]; [16],> 500 µg/mL
"CC[C@H](C)C[C@H](C)CCCCCCCCC(=O)N[C@H]1C[C@@H](O)[C@@H](NCCN)NC(=O)[C@@H]2[C@@H](O)CCN2C(=O)[C@H]([C@H](O)CCN)NC(=O)[C@H]([C@H](O)[C@@H](O)c2ccc(O)cc2)NC(=O)[C@@H]2C[C@@H](O)CN2C(=O)[C@H]([C@@H](C)O)NC1=O [caspofungin, reference compound]",MIC,[1]; Candida albicans ATCC MYA-2876,0.25 µg/mL
same,resistance of strain to antifungal (breakpoint),[2]; C. auris ATCC MYA-5001,resistant
same,MIC,[2]; Candida auris ATCC MYA-5001,> 32 µg/mL
same,MIC,[3]; [15],32 µg/mL
same,MIC,[4]; [16],125 µg/mL
"C[C@@H]1[C@H](O)[C@@H](C)/C=C/C=C/C=C/C=C/C=C/C=C/C=C/[C@H](O[C@@H]2O[C@H](C)[C@@H](O)[C@H](N)[C@@H]2O)C[C@@H]2O[C@](O)(C[C@@H](O)C[C@@H](O)[C@H](O)CC[C@@H](O)C[C@@H](O)CC(=O)O[C@H]1C)C[C@H](O)[C@H]2C(=O)O [amphotericin B, reference compound]",MIC,[1]; Candida albicans ATCC MYA-2876,0.25 µg/mL
same,MIC,[2]; Candida auris ATCC MYA-5001,0.5 µg/mL
same,MIC,[3]; [15],0.195 µg/mL
same,resistance of strain to antifungal (breakpoint),"[4]; A. fumigatus ATCC 1022, CLSI/EUCAST breakpoints",resistant
same,MIC,[4]; [16],2.5 µg/mL
"NCCN(CCN)/[N+]([O-])=N/O [DETA/NO, diethylenetriamine/NO]","[NO]t, total NO released over full duration",[7]; pH 7.4,6.3 ± 0.6 µmol/mg
same,"[NO]max, maximum instantaneous NO concentration",[7]; [17],735 ± 94 ppb mg^−1
same,"td, duration of NO release",[7]; [17],107.6 ± 19.9 h
same,MIC,[1]; [18],625 µg/mL
same,NO dose at MIC,[1]; [18],117 µg/mL
same,MIC,[1]; [19],625 µg/mL
same,NO dose at MIC,[1]; [19],117 µg/mL
same,Selectivity Index (IC50 AIR-100 / MIC),[1]; C. albicans ATCC 14053,77
same,Selectivity Index (IC50 AIR-100 / MIC),[1]; C. albicans ATCC 18804,77
same,Selectivity Index (IC50 AIR-100 / MIC),[1]; C. albicans ATCC MYA-2876,383
same,MIC,[1]; Candida albicans ATCC MYA-2876,125 µg/mL
same,NO dose at MIC,[1]; Candida albicans ATCC MYA-2876,23.5 µg/mL
same,Selectivity Index (IC50 AIR-100 / MIC),[2]; C. auris ATCC MYA-5000,77
same,Selectivity Index (IC50 AIR-100 / MIC),[2]; C. auris ATCC MYA-5001,1595
same,Selectivity Index (IC50 AIR-100 / MIC),[2]; C. auris ATCC MYA-5003,154
same,MIC,[2]; Candida auris ATCC MYA-5000,625 µg/mL
same,MIC,[2]; Candida auris ATCC MYA-5001,30 µg/mL
same,MIC,[2]; Candida auris ATCC MYA-5003,310 µg/mL
same,NO dose at MIC,[2]; Candida auris ATCC MYA-5000,117 µg/mL
same,NO dose at MIC,[2]; Candida auris ATCC MYA-5001,5.65 µg/mL
same,NO dose at MIC,[2]; Candida auris ATCC MYA-5003,58.4 µg/mL
same,Selectivity Index (IC50 AIR-100 / MIC),[3]; C. neoformans ATCC 208821,191
same,Selectivity Index (IC50 AIR-100 / MIC),[3]; C. neoformans ATCC MYA-4566,613
same,Selectivity Index (IC50 AIR-100 / MIC),[3]; C. neoformans ATCC MYA-4567,154
same,MIC,[3]; [13],78 µg/mL
same,MIC,[3]; [14],310 µg/mL
same,MIC,[3]; [15],250 µg/mL
same,NO dose at MIC,"[3]; ATCC208821, Cryptococcus neoformans ATCC 208821",47 µg/mL
same,NO dose at MIC,[3]; [13],14.7 µg/mL
same,NO dose at MIC,[3]; [14],58.4 µg/mL
same,Selectivity Index (IC50 AIR-100 / MIC),[4]; A. fumigatus ATCC 1022,150
same,MIC,[4]; [16],320 µg/mL
same,NO dose at MIC,"[4]; ATCC1022, Aspergillus fumigatus ATCC 1022 spores, calculated NO dose at MIC",60.5 µg/mL
same,checkerboard classification,[8]; [20],I (indifferent (I))
same,∑FIC,[8]; [20],≥ 1
same,checkerboard classification,[8]; [21],I (indifferent (I))
same,∑FIC,[8]; [21],≥ 1
same,checkerboard classification,[8]; [22],I (indifferent (I))
same,∑FIC,[8]; [22],≥ 1
same,checkerboard classification,[8]; [23],I (indifferent (I))
same,∑FIC,[8]; [23],≥ 1
same,checkerboard classification,[8]; [24],I (indifferent (I))
same,∑FIC,[8]; [24],≥ 1
same,checkerboard classification,[8]; [25],S (Synergistic (S))
same,∑FIC,[8]; [25],0.375
same,checkerboard classification,[9]; [20],I (indifferent (I))
same,∑FIC,[9]; [20],≥ 1
same,checkerboard classification,[9]; [21],I (indifferent (I))
same,∑FIC,[9]; [21],≥ 1
same,checkerboard classification,[9]; [22],I (indifferent (I))
same,∑FIC,[9]; [22],≥ 1
same,checkerboard classification,[9]; [23],I (indifferent (I))
same,∑FIC,[9]; [23],≥ 1
same,checkerboard classification,[9]; [24],I (indifferent (I))
same,∑FIC,[9]; [24],≥ 1
same,checkerboard classification,[9]; [25],I (indifferent (I))
same,∑FIC,[9]; [25],≥ 1
same,checkerboard classification,[10]; [20],I (indifferent (I))
same,∑FIC,[10]; [20],≥ 1
same,checkerboard classification,[10]; [21],I (indifferent (I))
same,∑FIC,[10]; [21],≥ 1
same,checkerboard classification,[10]; [22],A (additive (A))
same,∑FIC,[10]; [22],0.500
same,checkerboard classification,[10]; [23],I (indifferent (I))
same,∑FIC,[10]; [23],≥ 1
same,checkerboard classification,[10]; [24],I (indifferent (I))
same,∑FIC,[10]; [24],≥ 1
same,checkerboard classification,[10]; [25],A (additive (A))
same,∑FIC,[10]; [25],0.562
same,change in MIC or MFCs after serial passaging,[5],no change
same,change in MIC or MFCs after serial passaging,[6],no change
same,IC50,[11],48000 µg/mL
"NCCCNCCCN [DPTA, bis(3-aminopropyl) amine, reference compound]",MIC of base scaffold,[1],20000 µg/mL
same,MIC of base scaffold,[2],> 20000 µg/mL
same,MIC of base scaffold,[3],5000 µg/mL and 2500 µg/mL
"OC(Cn1cncn1)(Cn1cncn1)c1ccc(F)cc1F [fluconazole, reference compound]",resistance of strain to antifungal (breakpoint),"[1]; C. albicans ATCC MYA-2876, CLSI/EUCAST breakpoints",resistant
same,MIC,[1]; Candida albicans ATCC MYA-2876,> 32 µg/mL
same,resistance of strain to antifungal (breakpoint),[2]; C. auris ATCC MYA-5001,resistant
same,MIC,[2]; Candida auris ATCC MYA-5001,> 32 µg/mL
same,MIC,[3]; [15],4 µg/mL
same,MIC,[4]; [16],> 125 µg/mL
